Measured values: patent US20050124647A1, “Tricyclic derivatives of indole with antiangiogenic activity” (Sigma-Tau Industrie Farmaceutiche Riunite S.p.A., priority 2000, published 2005)
Where two headings read alike, the source gives them in different places.

Key:
MCF-7/DX = assay: Antiproliferative activity vs resistant cell MCF-7/DX; format: cell-based; conditions: Homo sapiens, MCF7/DX; resistant cell (doxorubicin-resistant, P-glycoprotein overexpressing); read-out: IC50 +/− SD, MCF-7/DX
Protocol: (§1) The test used was the sulforodamine B test used for screening anticancer products at the National Cancer Institute (Skehan, 1990). The molecules at scalar concentrations over a range from 500 μM to 0.97 μM, were incubated in parallel with different human cell lines for 24 hours. After removing the products, cell survival was investigated after another 48 hours with the NCI test. The antiproliferative capacity of the compounds was quantified in terms of IC50±SD (concentration of the molecule that inhibits 50% of cell survival) processed using a curve fitting program (De Lean et al., 1978).
(§2) The cytotoxicity of the molecules on tumour lines resistant to chemosensitising activity was assessed on various tumour cell lines overexpressing P-glycoprotein and resistant to doxorubicin (100-fold) and cross-resistant to daunorubicin, actinomycin D, mitoxantrone, vincristine, vinblastine, taxol, colchicine, and etoposide. The cytotoxicity of the products was assessed using the same test adopted for the sensitive tumour cells.

LoVo/DX = assay: Antiproliferative activity vs resistant cell LoVo/DX; format: cell-based; conditions: Homo sapiens, resistant cell (doxorubicin-resistant, P-glycoprotein overexpressing), read-out: IC50 +/− SD, LoVo/DX
Protocol: as §1, §2

BMEC [1] = assay: Cytotoxicity on endothelial cells (BMEC); format: cell-based, bovine
BMEC [2] = assay: Chemotactic assay with the Boyden chamber on BMEC; format: cell-based, bovine
Protocol: For the antiangiogenic activity the chemotactic assay with the Boyden chamber was performed (Werner F., Goodwin R. H. and Leonard E. J., Journal of Immunological Methods 1980; 33, 239-247), using both bovine aortal endothelial cell (BAEC) cultures and bovine medullary endothelial cell (BMEC) cultures. The assays were performed at IC0 (maximum non-cytotoxic concentration) and the results expressed as % inhibition of migration across a porous filter in response to a chemotactic stimulus (1% bovine serum in DMEM culture medium). This finding was obtained by direct cell count under the optical microscope, and the percentage migration inhibition was calculated according to the formula (T−C/C)×100, where T=mean number of cells migrating in the sample and C=mean number of cells migrating in the control. The control consisted of cells which migrated towards the serum, not treated with the study molecules, and included in every chemotaxis experiment. The data refer to the readings of 5 microscopic fields/well in 4 independent chemotaxis wells per sample.

| Structure (SMILES) | IC50 (MCF-7/DX) | IC50 (LoVo/DX) | IC0 (maximum non-cytotoxic concentration) (BMEC [1]) | activity on chemotaxis of endothelial cells (in words) (BMEC [2]) | activity on chemotaxis of endothelial cells (in words) (BMEC [2]; listed as ST 1381) |
| --- | --- | --- | --- | --- | --- |
| CC1(C)OCC(C2c3c([nH]c4ccccc34)C(c3c[nH]c4ccccc34)C3OC(C)(C)OC32)O1 (racemic) [ST1372, 1-(indol-3-yl)-2,3-O-isopropylidene-4-(2,3-O-isopropylidene-ethyl)-tetra-hydrocarbazole] | 26.9 µM | 26.3 µM |  |  |  |
| c1ccc2c(C3CCCCc4c3[nH]c3ccccc43)c[nH]c2c1 (racemic) [ST1381, 1-(indol-3-yl)-indo[2,3a]-cycloheptan.] | 28.4 µM | 25.2 µM | 30 µM | active | better anti-chemiotactic compound |
| c1ccc2c(C3CCCCc4[nH]c5ccccc5c43)c[nH]c2c1 (racemic) [ST1621, 5-(indol-3-yl)-indo(2,3a]-cycloheptan.] | 68.3 µM | 23.8 µM | 0.1 µM |  |  |
| c1ccc2c(C3CCCc4[nH]c5ccccc5c43)c[nH]c2c1 (racemic) [ST1729, 4-(1H-indol-3-yl)-tetrahydro-1H-carbazole] |  |  | 25 µM |  |  |
| c1[nH]c2cc3c(cc2c1C1CCCCc2c1[nH]c1cc4c(cc21)OCO4)OCO3 (racemic) [ST1749, 1-(5″,6″-methylendioxy-indol-3-yl)-5′,6′-methylendioxy-indo[2,3-a]-cycloeptane] |  |  | 100 µM |  |  |
| c1[nH]c2cc3c(cc2c1C1CCCc2c1[nH]c1cc4c(cc21)OCO4)OCO3 (racemic) [ST1751, 1-(5′,6′-methylendioxy-1H-indol-3-yl)-6,7-methylendioxy-tetrahydro-1H-carbazole] | 58.6 µM |  |  |  |  |
| c1ccc(COc2ccc3[nH]cc(C4CCCCc5c4[nH]c4ccc(OCc6ccccc6)cc54)c3c2)cc1 (racemic) [ST1765, 1-(5″-benzyloxy-indol-3-yl)-5′-benzyloxy-indo[2,3a]-cycloheptan] | 24.8 µM | 17 µM |  |  |  |
| c1ccc(COc2ccc3[nH]cc(C4CCCCc5[nH]c6ccc(OCc7ccccc7)cc6c54)c3c2)cc1 (racemic) [ST1778, 5-(5″-benzyloxy-indol-3-yl)-5′-benzyloxy-indo[2,3a]-cycloheptan.] | 71 µM | 65.1 µM | 25 µM |  |  |
| Oc1ccc2[nH]cc(C3CCCCc4c3[nH]c3ccc(O)cc43)c2c1 (racemic) [ST1783, 1-(5″-hydroxy-1H-indol-3-yl)-5′-hydroxy-indo[2,3a]-cycloheptan] | 39 µM |  | 10 µM |  |  |
